# Patent US20250368649A1, “TETRAHYDROPYRIDOPYRIMIDINE PAN-KRAS INHIBITORS” (Mirati Therapeutics, Inc., priority 2022, published 2025)
# What was measured:
# KRas Q61H = KRas Q61H (Homo sapiens, UniProt P01116, Q61H); experiment: KRas binding assay (TR-FRET displacement), KRas Q61H; details: single point, 10 nM compound
# KRas G12V = KRas G12V (Homo sapiens, UniProt P01116, G12V); experiment: biochemical; details: Binding to KRas (IC50 nM) G12V, TR-FRET displacement, KRas G12V
# KRas WT = KRas WT (Homo sapiens, UniProt P01116); experiment: KRas binding assay (TR-FRET displacement), KRas WT; details: single point, 10 nM compound
# KRas WT, sequence (P01116 1-169 isoform P01116-2): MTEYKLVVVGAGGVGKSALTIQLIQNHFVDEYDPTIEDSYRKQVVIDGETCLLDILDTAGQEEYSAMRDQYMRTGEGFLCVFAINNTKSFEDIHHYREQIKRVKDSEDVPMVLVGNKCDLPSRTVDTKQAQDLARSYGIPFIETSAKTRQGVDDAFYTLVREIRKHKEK
# KRas G12S = KRas G12S (Homo sapiens, UniProt P01116, G12S); type: binding; details: single point, 10 nM compound, read-out: Binding to KRas (% inhibition at 10 nM) G12S
# KRas G12S, sequence (P01116 1-169 isoform P01116-2 G12S): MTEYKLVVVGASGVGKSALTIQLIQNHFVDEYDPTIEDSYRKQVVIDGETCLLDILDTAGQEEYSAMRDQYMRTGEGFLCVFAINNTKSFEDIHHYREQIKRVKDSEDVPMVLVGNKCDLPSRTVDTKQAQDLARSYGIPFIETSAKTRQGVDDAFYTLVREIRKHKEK
# KRas G12D = KRas G12D (Homo sapiens, UniProt P01116, G12D); experiment: biochemical; details: Binding to KRas (IC50 nM) G12D, TR-FRET displacement, KRas G12D
# KRas G12D, sequence (P01116 1-169 isoform P01116-2 G12D): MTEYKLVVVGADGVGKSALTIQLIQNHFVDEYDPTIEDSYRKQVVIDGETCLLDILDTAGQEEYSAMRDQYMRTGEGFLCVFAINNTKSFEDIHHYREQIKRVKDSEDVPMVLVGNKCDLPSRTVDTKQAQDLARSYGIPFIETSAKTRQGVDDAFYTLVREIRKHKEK
# KRas G12C = KRas G12C (Homo sapiens, UniProt P01116, G12C); type: binding; details: single point, 10 nM compound, read-out: Binding to KRas (% inhibition at 10 nM) G12C
# KRas G12C, sequence (P01116 1-169 isoform P01116-2 G12C): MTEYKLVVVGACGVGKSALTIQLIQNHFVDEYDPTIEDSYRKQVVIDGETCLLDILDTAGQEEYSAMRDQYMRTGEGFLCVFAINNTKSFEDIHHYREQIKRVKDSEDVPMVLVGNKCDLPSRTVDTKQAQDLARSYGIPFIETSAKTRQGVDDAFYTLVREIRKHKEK
# A549 cells = experiment: Inhibition of KRas-mediated phosphorylation of ERK (Cisbio HTRF pERK), A549 cells; type: cell-based; details: Homo sapiens; for inhibition at 0.1 µM: single point at 100 nM, 3 hrs compound incubation; for IC50: A549, 3 h, 3 hr compound incubation, Cisbio pERK HTRF
# KRas G13D = KRas G13D (Homo sapiens, UniProt P01116, G13D); type: binding; details: single point, 10 nM compound, read-out: Binding to KRas (% inhibition at 10 nM) G13D
# KRas G13D, sequence (P01116 1-169 isoform P01116-2 G13D): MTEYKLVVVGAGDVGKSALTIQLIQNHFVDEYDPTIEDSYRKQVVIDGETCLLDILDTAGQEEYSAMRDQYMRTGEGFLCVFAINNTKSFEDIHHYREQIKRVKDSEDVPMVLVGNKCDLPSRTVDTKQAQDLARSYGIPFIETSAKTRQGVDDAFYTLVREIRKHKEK
# H358 cells = experiment: Inhibition of KRas-mediated phosphorylation of ERK (Cisbio HTRF pERK), H358 cells; type: cell-based; details: Homo sapiens; for inhibition at 0.1 µM: NCI-H358, single point at 100 nM, 3 hrs compound incubation; for IC50: NCI-H358, 3 h, 3 hr compound incubation, Cisbio pERK HTRF
# MKN1 cells = experiment: Inhibition of KRas-mediated phosphorylation of ERK (Cisbio HTRF pERK), MKN1 cells; type: cell-based; details: Homo sapiens, MKN-1, 3 hour compound incubation, Cisbio pERK HTRF
# In short: (§1)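 Day 1: 6,000 cells/well plated, RPMI + 10% FBS.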
# H460 cells = experiment: Inhibition of KRas-mediated phosphorylation of ERK (Cisbio HTRF pERK), H460 cells; type: cell-based; details: Homo sapiens; for inhibition at 0.1 µM: NCI-H460, single point at 100 nM, 3 hrs compound incubation; for IC50: NCI-H460, 3 h, 3 hr compound incubation, Cisbio pERK HTRF
# ASPC1 cells = experiment: Inhibition of KRas-mediated phosphorylation of ERK (Cisbio HTRF pERK), ASPC1 cells; type: cell-based; details: Homo sapiens, AsPC-1 cells; for IC50: ASPC1, 3 h, 3 hr compound incubation, Cisbio pERK HTRF; for inhibition at 0.1 µM: ASPC1, single point at 100 nM, 3 hrs compound incubation
# H727 cells = experiment: Inhibition of KRas-mediated phosphorylation of ERK (Cisbio HTRF pERK), H727 cells; type: cell-based; details: Homo sapiens; for IC50: NCI-H727, 3 h, 3 hr compound incubation, Cisbio pERK HTRF; for inhibition at 0.1 µM: NCI-H727, single point at 100 nM, 3 hrs compound incubation
# KRas G12R = KRas G12R (Homo sapiens, UniProt P01116, G12R); experiment: biochemical; details: Binding to KRas (IC50 nM) G12R, TR-FRET displacement, KRas G12R
# KRas G12R, sequence (P01116 1-169 isoform P01116-2 G12R): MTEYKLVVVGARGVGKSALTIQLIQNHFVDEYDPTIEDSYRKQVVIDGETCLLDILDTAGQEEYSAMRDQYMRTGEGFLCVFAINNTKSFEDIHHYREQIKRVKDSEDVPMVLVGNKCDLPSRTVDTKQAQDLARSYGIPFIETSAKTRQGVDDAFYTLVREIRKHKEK
# KRas G12A = KRas G12A (Homo sapiens, UniProt P01116, G12A); type: binding; details: single point, 10 nM compound, read-out: Binding to KRas (% inhibition at 10 nM) G12A
# KRas G12A, sequence (P01116 1-169 isoform P01116-2 G12A): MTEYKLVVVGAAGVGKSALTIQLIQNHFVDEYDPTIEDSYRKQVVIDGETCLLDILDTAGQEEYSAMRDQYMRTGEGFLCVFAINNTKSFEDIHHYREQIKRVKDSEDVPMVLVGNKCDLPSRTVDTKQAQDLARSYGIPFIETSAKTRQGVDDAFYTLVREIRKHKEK
# PSN1 cells = experiment: Inhibition of KRas-mediated phosphorylation of ERK (Cisbio HTRF pERK), PSN1 cells; type: cell-based; details: Homo sapiens, PSN1, 3 h, 3 hour compound incubation, Cisbio pERK HTRF
# In short: as §1
# HCT116 cells = experiment: Inhibition of KRas-mediated phosphorylation of ERK (Cisbio HTRF pERK), HCT116 cells; type: cell-based; details: Homo sapiens; for inhibition at 0.1 µM: HCT-116, single point at 100 nM, 3 hrs compound incubation; for IC50: HCT-116, 3 h, 3 hr compound incubation, Cisbio pERK HTRF
# KRas Q61H, sequence (P01116 1-169 isoform P01116-2 Q61H): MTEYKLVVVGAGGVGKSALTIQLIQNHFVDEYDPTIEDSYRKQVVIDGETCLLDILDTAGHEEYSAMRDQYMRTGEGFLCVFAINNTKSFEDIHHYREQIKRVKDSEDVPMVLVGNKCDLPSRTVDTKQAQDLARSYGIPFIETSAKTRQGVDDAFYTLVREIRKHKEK
# KRas G12V, sequence (P01116 1-169 isoform P01116-2 G12V): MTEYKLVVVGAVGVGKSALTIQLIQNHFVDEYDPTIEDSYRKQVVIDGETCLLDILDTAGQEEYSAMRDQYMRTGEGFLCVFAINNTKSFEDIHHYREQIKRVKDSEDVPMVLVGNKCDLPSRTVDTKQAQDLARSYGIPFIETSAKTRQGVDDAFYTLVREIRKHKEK
Structure (SMILES),inhibition at 0.01 µM (KRas Q61H),IC50 (KRas G12V),inhibition at 0.01 µM (KRas WT),inhibition at 0.01 µM (KRas G12S),IC50 (KRas G12D),inhibition at 0.01 µM (KRas G12C),inhibition at 0.1 µM (A549 cells),inhibition at 0.01 µM (KRas G13D),inhibition at 0.1 µM (H358 cells),IC50 (MKN1 cells),inhibition at 0.1 µM (H460 cells),IC50 (ASPC1 cells),IC50 (H727 cells),IC50 (KRas G12R),inhibition at 0.01 µM (KRas G12A),IC50 (PSN1 cells),IC50 (A549 cells),IC50 (H358 cells),IC50 (H460 cells),IC50 (HCT116 cells),further results
"CCc1c(F)ccc2cc(O)cc(N3CCc4c(nc(OC[C@@]56CCCN5C[C@H](F)C6)nc4N4CCCn5nc(C(=O)N6CC7CCC(C6)N7)cc5C4)C3)c12 [Example 265, 3,8-diazabicyclo[3.2.1]octan-3-yl(5-(7-(8-ethyl-7-fluoro-3-hydroxynaphthalen-1-yl)-2-(((2R,7aS)-2-fluorohexahydro-1H-pyrrolizin-7a-yl)methoxy)-5,6,7,8-tetrahydropyrido[3,4-d]pyrimidin-4-yl)-5,6,7,8-tetrahydro-4H-pyrazolo[1,5-a][1,4]diazepin-2-yl)methanone]",97%,< 2 nM,98%,99%,< 2 nM,100%,32%,99%,60%,23.1 nM,-4%,31 nM,217 nM,< 2 nM,97%,> 10000 nM,–,–,–,–,inhibition at 0.1 µM (ASPC1 cells): 63%; inhibition at 0.1 µM (H727 cells): 40%; inhibition at 0.1 µM (HCT116 cells): 16%
"CCc1c(F)ccc2cc(O)cc(N3CCc4c(nc(OC[C@@]56CCCN5C[C@H](F)C6)nc4N4CCCn5nc(C(=O)N(C)C)c(OC)c5C4)C3)c12 [Example 370, 5-(7-(8-ethyl-7-fluoro-3-hydroxynaphthalen-1-yl)-2-(((2R,7aS)-2-fluorohexahydro-1H-pyrrolizin-7a-yl)methoxy)-5,6,7,8-tetrahydropyrido[3,4-d]pyrimidin-4-yl)-3-methoxy-N,N-dimethyl-5,6,7,8-tetrahydro-4H-pyrazolo[1,5-a][1,4]diazepine-2-carboxamide]",98%,< 2 nM,97%,99%,< 2 nM,99%,65%,98%,97%,6.9 nM,–,9 nM,20 nM,< 2 nM,97%,> 10000 nM,36 nM,6 nM,43 nM,132 nM,–
"CCc1c(F)ccc2cc(O)cc(N3CCc4c(nc(OC[C@@]56CCCN5C[C@H](F)C6)nc4N4CCCn5nc(C(=O)N(C)C6CCC6)cc5C4)C3)c12 [Example 385, N-cyclobutyl-5-(7-(8-ethyl-7-fluoro-3-hydroxynaphthalen-1-yl)-2-(((2R,7aS)-2-fluorohexahydro-1H-pyrrolizin-7a-yl)methoxy)-5,6,7,8-tetrahydropyrido[3,4-d]pyrimidin-4-yl)-N-methyl-56,7,8-tetrahydro-4H-pyrazolo[1,5-a][1,4]diazepine-2-carboxamide]",96%,< 2 nM,95%,98%,< 2 nM,98%,74%,94%,94%,14.4 nM,–,3 nM,5 nM,< 2 nM,96%,3980 nM,15 nM,2 nM,22 nM,85 nM,–
"CCc1c(F)ccc2cc(O)cc(N3CCc4c(nc(OC[C@@]56CCCN5C[C@H](F)C6)nc4N4CCCn5nc(C(=O)NCCOCCOC)cc5C4)C3)c12 [Example 374, 5-(7-(8-ethyl-7-fluoro-3-hydroxynaphthalen-1-yl)-2-(((2R,7aS)-2-fluorohexahydro-1H-pyrrolizin-7a-yl)methoxy)-5,6,7,8-tetrahydropyrido[3,4-d]pyrimidin-4-yl)-N-(2-(2-methoxyethoxy)ethyl)-5,6,7,8-tetrahydro-4H-pyrazolo[1,5-a][1,4]diazepine-2-carboxamide]",96%,< 2 nM,95%,99%,< 2 nM,99%,57%,94%,99%,13.5 nM,–,4 nM,6 nM,< 2 nM,96%,4820 nM,25 nM,5 nM,35 nM,105 nM,–
"CCc1c(F)ccc2cc(O)cc(N3CCc4c(nc(OC[C@@]56CCCN5C[C@H](F)C6)nc4N4CCCn5nc(C(=O)N6CC7CCC6CN7C)cc5C4)C3)c12 (stereo partly drawn) [Example 260, (5-(7-(8-ethyl-7-fluoro-3-hydroxynaphthalen-1-yl)-2-(((2R,7aS)-2-fluorohexahydro-1H-pyrrolizin-7a-yl)methoxy)-5,6,7,8-tetrahydropyrido[3,4-d]pyrimidin-4-yl)-5,6,7,8-tetrahydro-4H-pyrazolo[1,5-a][1,4]diazepin-2-yl)(5-methyl-2,5-diazabicyclo[2.2.2]octan-2-yl)methanone]",98%,< 2 nM,98%,99%,< 2 nM,99%,73%,98%,97%,29.2 nM,38%,2 nM,8 nM,< 2 nM,97%,> 10000 nM,53 nM,17 nM,102 nM,151 nM,inhibition at 0.1 µM (ASPC1 cells): 98%; inhibition at 0.1 µM (H727 cells): 54%; inhibition at 0.1 µM (HCT116 cells): 29%
CCc1c(F)ccc2cc(O)cc(N3CCc4c(nc(OC[C@@]56CCCN5C[C@H](F)C6)nc4N4CCCn5nc(C(=O)N6CC7CC(C6)N7C)cc5C4)C3)c12 [Example 262],96%,< 2 nM,95%,98%,< 2 nM,99%,47%,97%,91%,56 nM,21%,14 nM,78 nM,< 2 nM,95%,> 10000 nM,–,–,–,–,inhibition at 0.1 µM (ASPC1 cells): 94%; inhibition at 0.1 µM (H727 cells): 38%; inhibition at 0.1 µM (HCT116 cells): 16%
"CCc1c(F)ccc2cc(O)cc(N3CCc4c(nc(OC[C@@]56CCCN5C[C@H](F)C6)nc4N4CCCn5nnc(Cl)c5C4)C3)c12 [Example 391, 4-(4-(3-chloro-7,8-dihydro-4H-[1,2,3]triazolo[1,5-a][1,4]diazepin-5(6H)-yl)-2-(((2R,7aS)-2-fluorohexahydro-1H-pyrrolizin-7a-yl)methoxy)-5,6-dihydropyrido[3,4-d]pyrimidin-7(8H)-yl)-5-ethyl-6-fluoronaphthalen-2-ol]",85%,< 2 nM,81%,94%,< 2 nM,93%,69%,86%,77%,57.6 nM,–,4 nM,26 nM,3 nM,81%,> 10000 nM,–,–,43 nM,128 nM,–
